Test results published in patent US20090221559A1 (priority 2005, published 2009).
Like-named read-outs stand apart in the source and are kept apart here.

Legend:
[1] = molecular target: T1, HCV NS5B polymerase (His-tagged, C-terminal 21 amino acid deleted NS5B, HC-J4) (Hepatitis C virus genotype 1b, UniProt O92972); assay: NS5b polymerase assay (biochemical RdRp assay, 3H-GTP incorporation, SPA beads); set-up: species or system HCV genotype 1b; conditions: 3H-GTP incorporation, 2 h at 25° C.
T1 construct: The cDNA encoding NS5B amino acid 1-570 (HC-J4, genotype 1b); His tag (His6, from pET-21b) (C); made in house; host or cells: E. coli BL21 (DE3)
How it was run: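 3H-GTP incorporation into newly made RNA was captured on SPA beads added in EDTA after 2 h at 25 °C. Compounds in DMSO met preformed enzyme–template complex (200 nM truncated His-NS5B, HC-J4 1b; biotin-oligo(rG13)/poly(rC)) for 15 min at RT, then 600 nM GTP, 5 mM MgCl2, Tris pH 7.5 started polymerization.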

[2] = system: HCV replicon RNA replication in Huh-7 luc/neo (Huh-Luc) cells; assay: HCV replicon assay (stable replicon cell reporter assay, luciferase read-out); type: cell-based, HCV type 1b
How it was run: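 Three-day compound exposure used Huh-Luc cells, which harbour an autonomously replicating genotype 1b NS3-NS5B replicon expressing luciferase and neo^R. Luciferase signal served as the replication read-out, and dose-response curves came from several concentrations per compound.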

[3] = NS5B Polymerase Assay IC50, 200 nM enzyme
[4] = Hepatitis C virus, Huh-7, 72 h, read-out: Replicon Assay EC50, Huh-Luc cells, three days incubation, luciferase activity
[5] = read-out: Replicon Assay EC50, Huh-Luc cells, three days incubation, luciferase activity
[6] = 200 nM enzyme, read-out: NS5B Polymerase Assay IC50
[7] = Huh-Luc cells, three days incubation, luciferase activity, read-out: Replicon Assay EC50

T1 sequence (O92972 2417-3000, looked up, stated change not applied): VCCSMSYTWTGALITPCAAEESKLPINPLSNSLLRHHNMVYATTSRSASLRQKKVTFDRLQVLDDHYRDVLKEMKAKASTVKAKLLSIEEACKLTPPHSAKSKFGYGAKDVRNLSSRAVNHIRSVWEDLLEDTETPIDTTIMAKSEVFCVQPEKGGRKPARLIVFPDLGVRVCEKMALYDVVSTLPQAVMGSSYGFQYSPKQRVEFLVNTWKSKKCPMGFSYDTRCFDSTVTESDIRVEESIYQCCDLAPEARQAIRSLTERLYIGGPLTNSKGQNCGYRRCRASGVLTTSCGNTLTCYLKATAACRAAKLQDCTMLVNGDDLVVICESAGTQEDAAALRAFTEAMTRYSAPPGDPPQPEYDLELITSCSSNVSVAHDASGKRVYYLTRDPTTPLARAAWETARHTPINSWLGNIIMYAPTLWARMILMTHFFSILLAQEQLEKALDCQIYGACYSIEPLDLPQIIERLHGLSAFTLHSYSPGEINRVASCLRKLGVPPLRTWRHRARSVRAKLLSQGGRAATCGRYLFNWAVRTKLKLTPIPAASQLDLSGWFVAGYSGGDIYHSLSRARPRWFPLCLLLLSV

COc1c(Cl)cc(Cl)cc1C1C2=C(CC(C)(C)CC2=O)Nc2ccccc2N1C(=O)Cc1ccccc1 (centres unmarked) [compound 15]
IC50 [1, 3]: > 42.7 µM | EC50 [2, 4]: 3.09 µM

CC1(C)CC(=O)C2=C(C1)Nc1ccccc1N(C(=O)Cc1ccccc1)C2c1c(Cl)cccc1Cl (centres unmarked) [compound 16]
IC50 [1, 3]: > 42.7 µM | EC50 [2, 4]: 10.6 µM

CCCCC(=O)N1c2ccccc2NC2=C(C(=O)CC(C)(C)C2)C1c1ccc(Cl)cc1Cl (centres unmarked) [compound 17]
IC50 [1, 3]: > 42.7 µM | EC50 [2, 4]: 6.59 µM

CC(=O)N1c2ccccc2NC2=C(C(=O)CC(C)(C)C2)C1c1ccccc1OCc1ccccc1 (centres unmarked) [compound 19]
IC50 [1, 3]: > 42.7 µM | EC50 [2, 5]: > 32 µM

CC1(C)CC(=O)C2=C(C1)Nc1ccccc1N(C(=O)Cc1ccccc1)C2c1ccc(Cl)cc1 (centres unmarked) [compound 20]
IC50 [1, 3]: > 42.6 µM | EC50 [2, 4]: 6.58 µM

COc1ccc(C2C3=C(CC(C)(C)CC3=O)Nc3ccccc3N2C(=O)CSc2nc3ccccc3s2)cc1 (centres unmarked) [compound 21]
IC50 [1, 3]: > 42.7 µM | EC50 [2, 4]: 14.2 µM

COc1ccc(OC)c(C2C3=C(CC(C)(C)CC3=O)Nc3ccccc3N2C(=O)Cc2ccccc2)c1 (centres unmarked) [compound 22]
IC50 [1, 3]: > 42.6 µM | EC50 [2, 4]: 10.8 µM

CC(C)C(=O)N1c2ccccc2NC2=C(C(=O)CC(C)(C)C2)C1c1ccccc1F (centres unmarked) [compound 23]
IC50 [1, 3]: > 42.7 µM | EC50 [2, 4]: 20.3 µM

CC(=O)N1c2ccccc2NC2=C(C(=O)CC(C)(C)C2)C1c1c(F)cccc1Cl (centres unmarked) [compound 24]
IC50 [1, 3]: > 42.7 µM | EC50 [2, 4]: 13 µM

CC1(C)CC(=O)C2=C(C1)Nc1ccccc1N(C(=O)C(F)(F)F)C2c1cccc(Cl)c1Cl (centres unmarked) [compound 25]
IC50 [1, 3]: > 42.7 µM | EC50 [2, 4]: 24.6 µM

CC1(C)CC(=O)C2=C(C1)Nc1ccccc1N(C(=O)c1ccccc1F)C2c1ccccc1OCc1ccccc1 (centres unmarked) [compound 27]
IC50 [1, 3]: > 42.7 µM | EC50 [2, 4]: 20.7 µM

CC(C)C(=O)N1c2ccccc2NC2=C(C(=O)CC(C)(C)C2)C1c1ccc(Cl)cc1Cl (centres unmarked) [compound 28]
IC50 [1, 3]: > 42.7 µM | EC50 [2, 4]: 5.52 µM

CC(=O)N1c2ccccc2NC2=C(C(=O)CC(C)(C)C2)C1c1cccc(Cl)c1Cl (centres unmarked) [compound 29]
IC50 [1, 3]: > 42.7 µM | EC50 [2, 4]: 6.79 µM

COc1ccc(C2C3=C(CC(C)(C)CC3=O)Nc3ccccc3N2C(=O)CC(C)C)c(OC)c1 (centres unmarked) [compound 30]
IC50 [1, 3]: > 42.6 µM | EC50 [2, 4]: 23 µM

CC1(C)CC(=O)C2=C(C1)Nc1ccccc1N(C(=O)Cc1ccccc1)C2c1cccc(Cl)c1 (centres unmarked) [compound 31]
IC50 [1, 3]: > 42.7 µM | EC50 [2, 4]: 6.36 µM

COc1ccc(C2C3=C(CC(C)(C)CC3=O)Nc3ccccc3N2C(=O)c2ccc(F)cc2)cc1 (centres unmarked) [compound 33]
IC50 [1, 3]: > 42.6 µM | EC50 [2, 4]: 24.7 µM

COc1cccc(C2C3=C(CC(C)(C)CC3=O)Nc3ccccc3N2C(=O)Cc2ccc(Cl)cc2)c1 (centres unmarked) [compound 34]
IC50 [1, 3]: > 42.7 µM | EC50 [2, 4]: 6.81 µM

CC1(C)CC(=O)C2=C(C1)Nc1ccccc1N(C(=O)c1ccccc1)C2c1c(F)cccc1Cl (centres unmarked) [compound 37]
IC50 [1, 3]: > 42.7 µM | EC50 [2, 4]: 6.93 µM

CC1(C)CC(=O)C2=C(C1)Nc1ccccc1N(C(=O)Cc1ccccc1)C2c1cccc(O)c1 (centres unmarked) [compound 39]
IC50 [1, 3]: > 42.7 µM | EC50 [2, 4]: 7.42 µM

CCC(=O)N1c2ccccc2NC2=C(C(=O)CC(C)(C)C2)C1c1cccc(Cl)c1Cl (centres unmarked) [compound 40]
IC50 [1, 3]: > 42.7 µM | EC50 [2, 4]: > 24.7 µM

COc1ccc(C2C3=C(CC(C)(C)CC3=O)Nc3ccccc3N2C(=O)CC(C)C)cc1 (centres unmarked) [compound 41]
IC50 [1, 3]: > 42.7 µM | EC50 [2, 4]: 8.44 µM

CC(=O)N1c2ccccc2NC2=C(C(=O)CC(C)(C)C2)C1c1ccc(OCc2ccccc2)cc1 (centres unmarked) [compound 42]
IC50 [1, 6]: 5.68 µM | EC50 [2, 7]: 6.39 µM

CC(C)CC(=O)N1c2ccccc2NC2=C(C(=O)CC(C)(C)C2)C1c1c(F)cccc1Cl (centres unmarked) [compound 43]
IC50 [1, 3]: > 42.7 µM | EC50 [2, 4]: 9.17 µM

CC(=O)N1c2ccccc2NC2=C(C(=O)CC(C)(C)C2)C1c1ccccc1OCc1ccccc1 (centres unmarked) [compound 44]
IC50 [1, 3]: > 42.7 µM | EC50 [2, 5]: 9.54 µM

CCC(=O)N1c2ccccc2NC2=C(C(=O)CC(C)(C)C2)C1c1c(Cl)cccc1Cl (centres unmarked) [compound 46]
IC50 [1, 3]: > 42.7 µM | EC50 [2, 4]: 11.1 µM

CC1(C)CC(=O)C2=C(C1)Nc1ccccc1N(C(=O)C(F)(F)F)C2c1cccc([N+](=O)[O-])c1 (centres unmarked) [compound 47]
IC50 [1, 3]: > 42.7 µM | EC50 [2, 4]: 16.4 µM

COc1ccc(C2C3=C(CC(C)(C)CC3=O)Nc3ccccc3N2C(C)=O)cc1OCc1ccccc1 (centres unmarked) [compound 48]
IC50 [1, 6]: 15.9 µM | EC50 [2, 7]: 16.7 µM

CCC(=O)N1c2ccccc2NC2=C(C(=O)CC(C)(C)C2)C1c1ccc(F)cc1 (centres unmarked) [compound 49]
IC50 [1, 3]: > 42.7 µM | EC50 [2, 4]: 11.2 µM

CC(=O)N1c2ccccc2NC2=C(C(=O)CC(C)(C)C2)C1c1c(Cl)cccc1Cl (centres unmarked) [compound 50]
IC50 [1, 3]: > 42.7 µM | EC50 [2, 4]: > 32 µM

CC1(C)CC(=O)C2=C(C1)Nc1ccccc1N(C(=O)C(F)(F)F)C2c1ccc(OCc2ccccc2)cc1 (centres unmarked) [compound 52]
IC50 [1, 3]: > 42.7 µM | EC50 [2, 4]: 7.44 µM

CC1(C)CC(=O)C2=C(C1)Nc1ccccc1N(C(=O)C1CC1)C2c1ccc(Cl)cc1Cl (centres unmarked) [compound 53]
IC50 [1, 3]: 19.7 µM | EC50 [2, 4]: > 32 µM

CCC(=O)N1c2ccccc2NC2=C(C(=O)CC(C)(C)C2)C1c1ccc(Cl)cc1 (centres unmarked) [compound 54]
IC50 [1, 3]: > 42.7 µM | EC50 [2, 4]: 22.3 µM

CCC(=O)N1c2ccccc2NC2=C(C(=O)CC(C)(C)C2)C1c1ccc(C(F)(F)F)cc1 (centres unmarked) [compound 55]
IC50 [1, 3]: 33.3 µM | EC50 [2, 4]: > 32 µM

CC1(C)CC(=O)C2=C(C1)Nc1ccccc1N(C(=O)C(F)(F)F)C2c1ccc(Cl)cc1 (centres unmarked) [compound 56]
IC50 [1, 3]: > 42.7 µM | EC50 [2, 4]: 25.3 µM

CCOc1ccc(C2C3=C(CC(C)(C)CC3=O)Nc3ccccc3N2C(C)=O)cc1 (centres unmarked) [compound 57]
IC50 [1, 3]: > 42.7 µM | EC50 [2, 4]: 4.47 µM

COc1ccc(C2C3=C(CC(C)(C)CC3=O)Nc3ccccc3N2C(=O)C(F)(F)F)c(OC)c1 (centres unmarked) [compound 58]
IC50 [1, 3]: > 42.7 µM | EC50 [2, 4]: 8.78 µM

COc1ccc(C2C3=C(CC(C)(C)CC3=O)Nc3ccccc3N2C(C)=O)cc1COc1ccc(F)cc1 (centres unmarked) [compound 59]
IC50 [1, 3]: > 42.7 µM | EC50 [2, 4]: 5.74 µM

CCC(=O)N1c2ccccc2NC2=C(C(=O)CC(C)(C)C2)C1c1cc(OC)ccc1OC (centres unmarked) [compound 60]
IC50 [1, 3]: > 42.7 µM | EC50 [2, 4]: 17.9 µM

CCC(=O)N1c2ccccc2NC2=C(C(=O)CC(C)(C)C2)C1c1ccccc1OC(C)CC (centres unmarked) [compound 61]
IC50 [1, 3]: > 42.7 µM | EC50 [2, 4]: 9.45 µM

COc1c(Cl)cc(Cl)cc1C1C2=C(CC(C)(C)CC2=O)Nc2ccccc2N1C(=O)C(C)C (centres unmarked) [compound 62]
IC50 [1, 3]: > 42.7 µM | EC50 [2, 4]: 22.6 µM

CCCOc1ccccc1C1C2=C(CC(C)(C)CC2=O)Nc2ccccc2N1C(=O)CC (centres unmarked) [compound 63]
IC50 [1, 3]: > 42.7 µM | EC50 [2, 4]: 5 µM

CCOc1cc(C2C3=C(CC(C)(C)CC3=O)Nc3ccccc3N2C(=O)c2ccccc2)ccc1O (centres unmarked) [compound 64]
IC50 [1, 3]: > 42.7 µM | EC50 [2, 4]: 22.9 µM

CCC(C)Oc1ccccc1C1C2=C(CC(C)(C)CC2=O)Nc2ccccc2N1C(=O)C(F)(F)F (centres unmarked) [compound 65]
IC50 [1, 3]: > 42.7 µM | EC50 [2, 4]: 2.48 µM

CCCCC(=O)N1c2ccccc2NC2=C(C(=O)CC(C)(C)C2)C1c1ccccc1Cl (centres unmarked) [compound 66]
IC50 [1, 3]: > 42.7 µM | EC50 [2, 4]: 23 µM

CCCCCOc1ccc(C2C3=C(CC(C)(C)CC3=O)Nc3ccccc3N2C(=O)c2ccccc2F)cc1 (centres unmarked) [compound 67]
IC50 [1, 3]: > 42.7 µM | EC50 [2, 4]: 5.67 µM

COc1ccc(C2C3=C(CC(C)(C)CC3=O)Nc3ccccc3N2C(=O)c2ccc(Cl)cc2)cc1OC (centres unmarked) [compound 68]
IC50 [1, 3]: > 42.7 µM | EC50 [2, 4]: 23.1 µM

CC1(C)CC(=O)C2=C(C1)Nc1ccccc1N(C(=O)Cc1ccccc1)C2c1c(F)cccc1Cl (centres unmarked) [compound 69]
IC50 [1, 3]: > 42.7 µM | EC50 [2, 4]: 4.58 µM

CC1(C)CC(=O)C2=C(C1)Nc1ccccc1N(C(=O)c1ccccc1)C2c1ccccc1Cl (centres unmarked) [compound 70]
IC50 [1, 3]: > 42.7 µM | EC50 [2, 4]: 14.6 µM

COc1ccc(OC)c(C2C3=C(CC(C)(C)CC3=O)Nc3ccccc3N2C(=O)c2ccccc2)c1 (centres unmarked) [compound 72]
IC50 [1, 3]: > 42.7 µM | EC50 [2, 4]: 23.6 µM
